Measurements published in ChEMBL document CHEMBL5338717, “Discovery of novel PDE4 inhibitors targeting the M-pocket from natural mangostanin with improved safety for the treatment of Inflammatory Bowel Diseases” (Eur J Med Chem, 2022).
The source made the active and inactive calls. The calls are words filed in the database; no cut-off is given here.

Assays:
[1] = system: Mus musculus; experiment: Anti-inflammatory bowel disease activity in DSS-induced inflammatory bowel disease C57BL/6 mouse model assessed as decrease in TNF-alpha mRNA expression level in colon at 5 mg/kg, iv BID and measured after 8 days by real-time PCR analysis; format: functional, organism-based; details: time 8.0 day
[2] = Volume of distribution at steady state in Sprague-Dawley rat at 2.5 mg/kg, iv; format: ADME, organism-based; details: in vivo, read-out: Vdss
[3] = system: Mus musculus; experiment: Anti-inflammatory bowel disease activity in DSS-induced inflammatory bowel disease C57BL/6 mouse model assessed as increase in colon length at 5 mg/kg, iv BID and measured upto 8 days; format: functional, organism-based; details: time <= 8.0 day
[4] = molecular target: 3',5'-cyclic-AMP phosphodiesterase 4B (Homo sapiens, UniProt Q07343); experiment: Inhibition of recombinant PDE4B2 (152 to 487 residues) (unknown origin) expressed in Escherichia coli BL21 using [3H]cAMP as substrate incubated for 15 mins by liquid scintillation method
Chain of 3',5'-cyclic-AMP phosphodiesterase 4B (Q07343 whole entry, the tested form may be a part): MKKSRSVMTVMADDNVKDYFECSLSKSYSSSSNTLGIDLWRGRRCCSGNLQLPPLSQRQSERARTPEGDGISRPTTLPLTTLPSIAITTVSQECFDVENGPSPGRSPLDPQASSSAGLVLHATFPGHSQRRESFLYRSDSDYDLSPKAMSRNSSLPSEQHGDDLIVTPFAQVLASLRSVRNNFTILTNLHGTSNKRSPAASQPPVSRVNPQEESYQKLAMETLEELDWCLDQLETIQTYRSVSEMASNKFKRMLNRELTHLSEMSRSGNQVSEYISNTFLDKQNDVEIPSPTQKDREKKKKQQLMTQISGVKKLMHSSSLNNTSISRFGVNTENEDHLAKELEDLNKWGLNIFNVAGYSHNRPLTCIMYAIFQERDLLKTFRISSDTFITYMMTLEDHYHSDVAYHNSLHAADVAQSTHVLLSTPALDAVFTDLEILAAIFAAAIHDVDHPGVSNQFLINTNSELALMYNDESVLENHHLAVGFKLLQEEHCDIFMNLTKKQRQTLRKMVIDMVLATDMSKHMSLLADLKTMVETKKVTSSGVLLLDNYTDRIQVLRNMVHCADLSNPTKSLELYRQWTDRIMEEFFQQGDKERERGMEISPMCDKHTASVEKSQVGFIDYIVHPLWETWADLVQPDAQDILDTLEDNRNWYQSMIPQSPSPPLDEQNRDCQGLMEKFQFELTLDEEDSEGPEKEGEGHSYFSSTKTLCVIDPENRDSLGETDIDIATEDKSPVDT

[5] = Clearance in Sprague-Dawley rat at 2.5 mg/kg, iv; format: ADME, organism-based; details: in vivo
[6] = AUC(0 to 24 hrs) in Sprague-Dawley rat at 2.5 mg/kg, iv; format: ADME, organism-based; parameters: dose 2.5 mg/kg, route iv; details: in vivo
[7] = system: Mus musculus; experiment: Anti-inflammatory bowel disease activity in DSS-induced inflammatory bowel disease C57BL/6 mouse model assessed as increase in body weight at 5 mg/kg, iv BID and measured after 8 days […]; format: functional, organism-based; details: time 8.0 day
[8] = Metabolic stability in rat liver microsomes assessed as half life; format: ADME, Microsome
[9] = molecular target: Cytochrome P450 3A4 (Homo sapiens, UniProt P08684); experiment: Inhibition of human CYP3A4 in human hepatocytes; format: ADME, cell-based, Hepatocyte
Chain of Cytochrome P450 3A4 (P08684 whole entry, the tested form may be a part): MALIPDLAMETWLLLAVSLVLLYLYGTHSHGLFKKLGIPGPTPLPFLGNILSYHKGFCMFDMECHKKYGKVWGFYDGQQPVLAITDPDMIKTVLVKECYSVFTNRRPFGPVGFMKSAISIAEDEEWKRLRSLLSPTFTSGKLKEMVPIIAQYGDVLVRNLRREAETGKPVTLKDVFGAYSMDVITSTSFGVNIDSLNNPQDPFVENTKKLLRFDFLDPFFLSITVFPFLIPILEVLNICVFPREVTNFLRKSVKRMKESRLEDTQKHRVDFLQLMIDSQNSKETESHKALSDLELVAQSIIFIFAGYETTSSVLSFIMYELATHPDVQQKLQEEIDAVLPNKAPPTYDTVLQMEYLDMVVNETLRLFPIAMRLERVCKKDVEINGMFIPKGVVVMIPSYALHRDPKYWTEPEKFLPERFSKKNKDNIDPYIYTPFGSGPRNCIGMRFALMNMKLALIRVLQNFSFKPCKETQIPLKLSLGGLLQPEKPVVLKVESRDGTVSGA

[10] = molecular target: High affinity 3',5'-cyclic-AMP phosphodiesterase 7A (Homo sapiens, UniProt Q13946); experiment: Inhibition of recombinant PDE7A1 (130 to 482 residues) (unknown origin) expressed in Escherichia coli BL21 using [3H]cAMP as substrate incubated for 15 mins by liquid scintillation method
Chain of High affinity 3',5'-cyclic-AMP phosphodiesterase 7A (Q13946 whole entry, the tested form may be a part): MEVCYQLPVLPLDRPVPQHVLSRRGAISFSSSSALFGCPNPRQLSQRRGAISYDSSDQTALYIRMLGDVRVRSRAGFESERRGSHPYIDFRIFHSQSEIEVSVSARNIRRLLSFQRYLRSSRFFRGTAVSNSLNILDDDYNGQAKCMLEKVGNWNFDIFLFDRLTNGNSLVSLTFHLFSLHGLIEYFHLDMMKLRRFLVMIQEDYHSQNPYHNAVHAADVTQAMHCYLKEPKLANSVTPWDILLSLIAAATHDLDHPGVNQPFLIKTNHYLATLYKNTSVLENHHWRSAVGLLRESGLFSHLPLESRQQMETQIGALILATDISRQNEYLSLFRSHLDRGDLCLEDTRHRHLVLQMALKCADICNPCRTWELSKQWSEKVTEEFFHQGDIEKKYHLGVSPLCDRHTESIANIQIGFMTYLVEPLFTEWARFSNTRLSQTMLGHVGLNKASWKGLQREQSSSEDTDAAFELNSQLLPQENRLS

[11] = molecular target: High affinity cAMP-specific and IBMX-insensitive 3',5'-cyclic phosphodiesterase 8A (Homo sapiens, UniProt O60658); experiment: Inhibition of recombinant PDE8A1 (480 to 828 residues) (unknown origin) expressed in Escherichia coli BL21 using [3H]cAMP as substrate incubated for 15 mins by liquid scintillation method
Chain of High affinity cAMP-specific and IBMX-insensitive 3',5'-cyclic phosphodiesterase 8A (O60658 whole entry, the tested form may be a part): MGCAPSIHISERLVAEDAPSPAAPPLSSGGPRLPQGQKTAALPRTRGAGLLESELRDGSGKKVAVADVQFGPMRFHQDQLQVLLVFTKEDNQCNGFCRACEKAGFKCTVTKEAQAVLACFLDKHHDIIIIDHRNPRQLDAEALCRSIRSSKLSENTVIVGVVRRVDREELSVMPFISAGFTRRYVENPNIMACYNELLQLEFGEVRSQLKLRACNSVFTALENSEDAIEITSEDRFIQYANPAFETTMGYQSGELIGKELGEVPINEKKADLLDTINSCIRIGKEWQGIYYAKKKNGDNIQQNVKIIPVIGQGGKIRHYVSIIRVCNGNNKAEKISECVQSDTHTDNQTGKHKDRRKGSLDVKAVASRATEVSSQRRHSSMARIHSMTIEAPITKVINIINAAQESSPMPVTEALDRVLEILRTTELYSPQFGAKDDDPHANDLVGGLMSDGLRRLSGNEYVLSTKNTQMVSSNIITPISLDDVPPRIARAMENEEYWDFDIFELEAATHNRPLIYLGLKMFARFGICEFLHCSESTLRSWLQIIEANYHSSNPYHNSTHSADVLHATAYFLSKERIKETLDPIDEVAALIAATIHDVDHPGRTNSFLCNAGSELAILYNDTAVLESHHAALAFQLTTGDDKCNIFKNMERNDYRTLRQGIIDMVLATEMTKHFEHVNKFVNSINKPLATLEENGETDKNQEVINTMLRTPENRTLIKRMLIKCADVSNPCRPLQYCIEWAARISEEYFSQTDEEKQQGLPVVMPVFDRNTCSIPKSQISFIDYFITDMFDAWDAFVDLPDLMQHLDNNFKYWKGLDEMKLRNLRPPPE

[12] = molecular target: cAMP and cAMP-inhibited cGMP 3',5'-cyclic phosphodiesterase 10A (Homo sapiens, UniProt Q9Y233); experiment: Inhibition of recombinant PDE10A2 (449 to 770 residues) (unknown origin) expressed in Escherichia coli BL21 using [3H]cAMP as substrate incubated for 15 mins by liquid scintillation method
Chain of cAMP and cAMP-inhibited cGMP 3',5'-cyclic phosphodiesterase 10A (Q9Y233 whole entry, the tested form may be a part): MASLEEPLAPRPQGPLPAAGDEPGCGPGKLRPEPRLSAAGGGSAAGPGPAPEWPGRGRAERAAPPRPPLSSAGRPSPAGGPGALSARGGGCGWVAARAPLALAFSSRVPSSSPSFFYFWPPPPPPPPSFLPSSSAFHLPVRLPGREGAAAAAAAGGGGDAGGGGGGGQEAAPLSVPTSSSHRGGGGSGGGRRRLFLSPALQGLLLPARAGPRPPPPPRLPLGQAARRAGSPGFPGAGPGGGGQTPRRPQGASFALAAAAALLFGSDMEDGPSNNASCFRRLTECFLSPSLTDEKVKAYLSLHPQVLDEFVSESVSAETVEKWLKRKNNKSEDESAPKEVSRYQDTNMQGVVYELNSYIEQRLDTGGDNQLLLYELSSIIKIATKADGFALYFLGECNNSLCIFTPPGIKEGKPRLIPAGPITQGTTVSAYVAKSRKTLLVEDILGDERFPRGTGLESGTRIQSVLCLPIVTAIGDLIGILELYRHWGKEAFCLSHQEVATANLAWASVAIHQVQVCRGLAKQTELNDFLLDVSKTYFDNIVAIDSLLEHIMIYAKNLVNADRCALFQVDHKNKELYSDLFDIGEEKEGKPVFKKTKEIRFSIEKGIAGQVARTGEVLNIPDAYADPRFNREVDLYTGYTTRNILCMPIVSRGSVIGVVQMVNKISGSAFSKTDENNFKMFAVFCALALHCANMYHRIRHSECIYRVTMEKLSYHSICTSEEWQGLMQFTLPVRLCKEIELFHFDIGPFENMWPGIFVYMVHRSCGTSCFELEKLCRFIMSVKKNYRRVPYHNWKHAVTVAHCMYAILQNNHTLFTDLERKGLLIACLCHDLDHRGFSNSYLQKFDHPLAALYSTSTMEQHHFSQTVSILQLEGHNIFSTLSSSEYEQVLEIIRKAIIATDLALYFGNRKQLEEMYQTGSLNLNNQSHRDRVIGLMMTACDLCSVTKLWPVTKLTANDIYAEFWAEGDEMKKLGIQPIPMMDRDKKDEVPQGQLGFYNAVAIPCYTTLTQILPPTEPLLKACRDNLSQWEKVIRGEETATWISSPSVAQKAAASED

[13] = system: Mus musculus; experiment: Anti-inflammatory bowel disease activity in DSS-induced inflammatory bowel disease C57BL/6 mouse model assessed as decrease in IFN-gamma mRNA expression level in colon at 5 mg/kg, iv BID and measured after 8 days by real-time PCR analysis; format: functional, organism-based; details: time 8.0 day
[14] = Toxicity in twelve hrs fasted Beagle dog assessed as emesis at 10 mg/kg,po and measured upto 180 mins; format: organism-based, Canis lupus familiaris; details: in vivo, 3 h
[15] = system: Mus musculus; experiment: Anti-inflammatory bowel disease activity in DSS-induced inflammatory bowel disease C57BL/6 mouse model assessed as decrease in body weight loss by measuring disease activity index score at 5 mg/kg, iv BID and measured upto 8 days; format: functional, organism-based; details: time <= 8.0 day
[16] = molecular target: Cytochrome P450 2C9 (Homo sapiens, UniProt P11712); experiment: Inhibition of human CYP2C9 in human hepatocytes; format: ADME, cell-based, Hepatocyte
Chain of Cytochrome P450 2C9 (P11712 whole entry): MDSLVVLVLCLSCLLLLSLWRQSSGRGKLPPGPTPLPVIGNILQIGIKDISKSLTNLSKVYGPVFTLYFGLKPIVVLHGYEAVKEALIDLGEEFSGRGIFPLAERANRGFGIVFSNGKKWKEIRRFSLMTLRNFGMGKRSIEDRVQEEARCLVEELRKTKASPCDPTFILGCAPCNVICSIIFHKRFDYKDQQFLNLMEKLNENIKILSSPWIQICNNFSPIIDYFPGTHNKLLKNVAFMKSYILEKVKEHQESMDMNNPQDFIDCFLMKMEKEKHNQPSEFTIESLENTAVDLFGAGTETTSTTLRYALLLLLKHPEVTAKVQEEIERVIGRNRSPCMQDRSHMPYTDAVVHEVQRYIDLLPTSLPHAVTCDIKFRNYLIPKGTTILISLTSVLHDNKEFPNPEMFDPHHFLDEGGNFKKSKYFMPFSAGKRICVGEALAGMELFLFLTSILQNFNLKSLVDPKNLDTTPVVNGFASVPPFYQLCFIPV

[17] = molecular target: T1, Cytochrome P450 1A2 (Homo sapiens, UniProt P05177); experiment: Inhibition of human CYP1A2 in human hepatocytes; format: ADME, cell-based, Hepatocyte
T1 sequence (P05177 whole entry): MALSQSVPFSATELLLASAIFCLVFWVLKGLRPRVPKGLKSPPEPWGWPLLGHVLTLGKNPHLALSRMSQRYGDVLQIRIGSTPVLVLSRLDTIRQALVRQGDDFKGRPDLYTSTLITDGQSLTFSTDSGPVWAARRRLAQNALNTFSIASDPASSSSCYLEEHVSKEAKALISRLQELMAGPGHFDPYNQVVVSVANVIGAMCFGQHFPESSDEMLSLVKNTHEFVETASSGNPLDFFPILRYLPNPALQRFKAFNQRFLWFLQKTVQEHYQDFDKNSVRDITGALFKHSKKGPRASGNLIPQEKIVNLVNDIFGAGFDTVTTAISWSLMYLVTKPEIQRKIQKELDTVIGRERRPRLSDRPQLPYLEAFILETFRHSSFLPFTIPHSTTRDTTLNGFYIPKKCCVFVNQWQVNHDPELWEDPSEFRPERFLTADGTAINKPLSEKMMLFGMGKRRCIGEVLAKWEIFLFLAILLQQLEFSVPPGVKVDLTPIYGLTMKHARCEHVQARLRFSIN

[18] = molecular target: High affinity cGMP-specific 3',5'-cyclic phosphodiesterase 9A (Homo sapiens, UniProt O76083); experiment: Inhibition of recombinant PDE9A2 (181 to 506 residues) (unknown origin) expressed in Escherichia coli BL21 using [3H]cGMP as substrate incubated for 15 mins by liquid scintillation method
Chain of High affinity cGMP-specific 3',5'-cyclic phosphodiesterase 9A (O76083 whole entry, the tested form may be a part): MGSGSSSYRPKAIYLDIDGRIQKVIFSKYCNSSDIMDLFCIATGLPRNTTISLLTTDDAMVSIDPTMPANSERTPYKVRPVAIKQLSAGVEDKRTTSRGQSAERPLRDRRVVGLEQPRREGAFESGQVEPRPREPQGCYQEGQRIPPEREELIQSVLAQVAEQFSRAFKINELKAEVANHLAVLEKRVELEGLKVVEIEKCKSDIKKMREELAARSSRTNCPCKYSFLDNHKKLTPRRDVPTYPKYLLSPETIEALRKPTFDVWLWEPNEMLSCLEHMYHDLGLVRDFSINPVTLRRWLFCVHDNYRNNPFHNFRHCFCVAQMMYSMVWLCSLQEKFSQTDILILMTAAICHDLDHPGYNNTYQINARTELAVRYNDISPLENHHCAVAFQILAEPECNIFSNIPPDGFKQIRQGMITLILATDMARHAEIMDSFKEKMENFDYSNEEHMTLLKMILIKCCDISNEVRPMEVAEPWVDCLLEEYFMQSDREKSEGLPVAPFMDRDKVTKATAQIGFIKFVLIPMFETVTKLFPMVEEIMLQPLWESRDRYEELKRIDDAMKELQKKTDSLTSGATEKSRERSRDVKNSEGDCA

[19] = Acute toxicity in mouse assessed as body weight change at 0.75 g/Kg,po; details: in vivo, 750 mg/kg
[20] = molecular target: cGMP-inhibited 3',5'-cyclic phosphodiesterase 3A (Homo sapiens, UniProt Q14432); experiment: Inhibition of recombinant PDE3A (679 to 1087 residues) (unknown origin) expressed in Escherichia coli BL21 using [3H]cAMP as substrate incubated for 15 mins by liquid scintillation method
[21] = molecular target: T2, Cytochrome P450 2B6 (Homo sapiens, UniProt P20813); experiment: Inhibition of human CYP2B6 in human hepatocytes; format: ADME, cell-based, Hepatocyte
T2 sequence (P20813 whole entry): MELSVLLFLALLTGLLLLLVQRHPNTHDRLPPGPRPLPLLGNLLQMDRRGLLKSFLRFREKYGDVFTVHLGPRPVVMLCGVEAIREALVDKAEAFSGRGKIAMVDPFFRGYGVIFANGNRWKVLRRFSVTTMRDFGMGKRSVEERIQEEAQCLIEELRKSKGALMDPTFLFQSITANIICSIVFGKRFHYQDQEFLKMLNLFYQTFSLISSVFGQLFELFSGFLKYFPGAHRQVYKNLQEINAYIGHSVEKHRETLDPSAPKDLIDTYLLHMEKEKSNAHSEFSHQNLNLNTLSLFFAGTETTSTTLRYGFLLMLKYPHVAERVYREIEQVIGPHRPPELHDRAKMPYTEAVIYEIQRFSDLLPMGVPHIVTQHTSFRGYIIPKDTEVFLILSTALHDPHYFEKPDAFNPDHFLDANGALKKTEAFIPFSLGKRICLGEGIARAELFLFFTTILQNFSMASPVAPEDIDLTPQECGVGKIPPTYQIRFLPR

[22] = Selectivity index, ratio of IC50 for inhibition of PDE5A1 (535 to 860 residues) (unknown origin) expressed in Escherichia coli BL21 to IC50 for inhibition of recombinant PDE4D2 (86 to 413 residues) (unknown origin) expressed in Escherichia coli BL21

In the case of `COc1c(OCC2CC2)cc2oc3cc4c(c(OCc5ccncc5)c3c(=O)c2c1CC=C(C)C)C=CC(C)(C)O4`, the Activity [1] is reported as “Active”, the Vd [2] is reported as 0.673 L/kg and the Activity [3] is reported as “Active”. The IC50 [4] was 9.51 nM, the clearance [5] was 6.4 mL/min/kg and the AUC(0-t) [6] was 6520 ng·h/mL. The Activity [7] was “Active”, the half-life [8] was 7.42 h and the IC50 [9] was 6100 nM. It also gave an IC50 [10] of 15 nM, an IC50 [11] of 194 nM and an IC50 [12] of 1020 nM. The Activity [13] was “Active”, the Activity [14] was “Non-Toxic” and the Activity [15] was “Active”. It also gave an IC50 [16] of 4100 nM, an IC50 [17] greater than 25000 nM and an IC50 [18] greater than 10000 nM. The Activity [19] was “Non-Toxic”, the IC50 [20] was greater than 10000 nM and the IC50 [21] was greater than 25000 nM. It also gave a Ratio IC50 [22] of 353.
